Columns and labels:
Mus musculus [1] = assay: In vivo antithrombotic activity in Swiss mice was determined when the compound was administered at 30 umol/kg orally 1 hour prior to challenge; format: functional
Mus musculus [2] = assay: In vivo increase in the bleeding time was determined when administered at 30 umol/kg orally 1 hour prior to challenge; format: functional

Row | SMILES | Protection (Mus musculus [1]) [%] | Increase (Mus musculus [2]) [%]
1 | Cc1ccc(-c2cc(CN(Cc3cccc(C)c3)C(Cc3ccccc3)C(N)=O)no2)cc1 (configuration not stated) | 50 | 0
2 | NC(=O)C(Cc1c[nH]cn1)N(Cc1cccc(Br)c1)Cc1cc(-c2ccccc2)on1 (configuration not stated) | 40 | 
3 | NC(=O)C(Cc1ccccc1)N(Cc1ccc([N+](=O)[O-])cc1)Cc1cc(-c2ccccc2Cl)on1 (configuration not stated) | 20 | 
4 | NC(=O)C(Cc1ccc(O)cc1)N(Cc1ccc(Br)cc1)Cc1cc(-c2ccccc2Cl)on1 (configuration not stated) | 60 | 
5 | N#Cc1ccc(CN(Cc2cc(-c3ccccc3)on2)C(CCC(N)=O)C(N)=O)cc1 (configuration not stated) | 70 | 62
6 | Cc1ccc(-c2cc(CN(Cc3cccc(Br)c3)C(CCCCN)C(N)=O)no2)cc1 (configuration not stated) | 40 | 
7 | CC(=O)Oc1ccccc1C(=O)O [ASPIRIN] | 40 | 110
8 | Cc1ccc(-c2cc(CN(Cc3ccc(C#N)cc3)C(CO)C(N)=O)no2)cc1 (configuration not stated) | 60 | 41
9 | NC(=O)C(CO)N(Cc1ccc(Br)cc1)Cc1cc(-c2ccccc2Cl)on1 (configuration not stated) | 70 | 50
10 | Cc1ccc(-c2cc(CN(Cc3ccccc3)C(CCCCN)C(N)=O)no2)cc1 (configuration not stated) | 40 | 
11 | Cc1ccc(-c2cc(CN(Cc3ccccc3)C(CCCN=C(N)N)C(N)=O)no2)cc1 (configuration not stated) | 10 | 
12 | NC(=O)C(Cc1ccccc1)N(Cc1ccc(Br)cc1)Cc1cc(-c2ccccc2)on1 (configuration not stated) | 20 | 
13 | Cc1ccc(CN(Cc2cc(-c3ccccc3)on2)C(CCCCN)C(N)=O)cc1 (configuration not stated) | 20 | 
14 | N#Cc1ccc(CN(Cc2cc(-c3ccccc3)on2)C(CCCNC(=N)N)C(N)=O)cc1 (configuration not stated) | 50 | 31
15 | NC(=O)C(CO)N(Cc1ccc(Br)cc1)Cc1cc(-c2ccccc2)on1 (configuration not stated) | 30 | 
16 | NC(=O)C(Cc1c[nH]cn1)N(Cc1ccc([N+](=O)[O-])cc1)Cc1cc(-c2ccccc2)on1 (configuration not stated) | 60 | 30
17 | NC(=O)C(Cc1ccccc1)N(Cc1ccccc1)Cc1cc(-c2ccccc2)on1 (configuration not stated) | 30 | 
18 | N#Cc1ccc(CN(Cc2cc(-c3ccccc3Cl)on2)C(Cc2ccc(O)cc2)C(N)=O)cc1 (configuration not stated) | 40 | 
19 | NC(=O)C(Cc1c[nH]cn1)N(Cc1ccccc1)Cc1cc(-c2ccccc2)on1 (configuration not stated) | 50 | 81
20 | Cc1ccc(-c2cc(CN(Cc3cccc(Br)c3)C(Cc3c[nH]cn3)C(N)=O)no2)cc1 (configuration not stated) | 10 | 
21 | Cc1ccc(-c2cc(CN(Cc3ccccc3)C(CO)C(N)=O)no2)cc1 (configuration not stated) | 60 | 79
22 | Cc1ccc(-c2cc(CN(CC(N)=O)Cc3ccccc3)no2)cc1 | 20 | 
23 | CC(C)=CCC(C(N)=O)N(Cc1ccc(C#N)cc1)Cc1cc(-c2ccccc2)on1 (configuration not stated) | 20 | 

Row | SMILES | Protection (Mus musculus [1]) [%] | Increase (Mus musculus [2]) [%]
24 | N#Cc1ccc(CN(Cc2cc(-c3ccccc3Cl)on2)C(Cc2ccccc2)C(N)=O)cc1 (configuration not stated) | 50 | 0
25 | NCCCCC(C(N)=O)N(Cc1ccc([N+](=O)[O-])cc1)Cc1cc(-c2ccccc2)on1 (configuration not stated) | 30 | 
26 | NC(=O)C(Cc1ccccc1)N(Cc1ccccc1)Cc1cc(-c2ccccc2Cl)on1 (configuration not stated) | 30 | 
27 | Cc1ccc(-c2cc(CN(Cc3cccc([N+](=O)[O-])c3)C(Cc3c[nH]cn3)C(N)=O)no2)cc1 (configuration not stated) | 60 | 40
28 | NC(=O)CCC(C(N)=O)N(Cc1ccc(Br)cc1)Cc1cc(-c2ccccc2Cl)on1 (configuration not stated) | 20 | 
29 | N=C(N)NCCCC(C(N)=O)N(Cc1ccccc1)Cc1cc(-c2ccccc2Cl)on1 (configuration not stated) | 40 | 
30 | Cc1ccc(-c2cc(CN(Cc3ccc(C#N)cc3)C(CCCCN)C(N)=O)no2)cc1 (configuration not stated) | 40 | 
31 | N#Cc1ccc(CN(Cc2cc(-c3ccccc3)on2)C(Cc2c[nH]cn2)C(N)=O)cc1 (configuration not stated) | 50 | 80
32 | N#Cc1ccc(CN(Cc2cc(-c3ccccc3)on2)C(CO)C(N)=O)cc1 (configuration not stated) | 30 | 
33 | NC(=O)C(Cc1ccc(O)cc1)N(Cc1ccc(Br)cc1)Cc1cc(-c2ccccc2)on1 (configuration not stated) | 20 | 
34 | N#Cc1ccc(CN(Cc2cc(-c3ccccc3Cl)on2)C(CO)C(N)=O)cc1 (configuration not stated) | 10 | 
35 | CC(C)=CCC(C(N)=O)N(Cc1ccc(C)cc1)Cc1cc(-c2ccccc2)on1 (configuration not stated) | 20 | 
36 | Cc1ccc(-c2cc(CN(Cc3ccc(C#N)cc3)C(Cc3ccc(O)cc3)C(N)=O)no2)cc1 (configuration not stated) | 20 | 
37 | CC(C)=CCC(C(N)=O)N(Cc1cccc(C)c1)Cc1cc(-c2ccc(C)cc2)on1 (configuration not stated) | 60 | 
38 | Cc1ccc(CN(Cc2cc(-c3ccccc3)on2)C(Cc2c[nH]cn2)C(N)=O)cc1 (configuration not stated) | 40 | 
39 | N=C(N)NCCCC(C(N)=O)N(Cc1ccc(Br)cc1)Cc1cc(-c2ccccc2)on1 (configuration not stated) | 80 | 25
40 | Cc1ccc(-c2cc(CN(Cc3ccc(C#N)cc3)C(CCCN=C(N)N)C(N)=O)no2)cc1 (configuration not stated) | 40 | 
41 | Cc1ccc(-c2cc(CN(Cc3cccc([N+](=O)[O-])c3)C(CCCCN)C(N)=O)no2)cc1 (configuration not stated) | 20 | 
42 | NC(=O)C(CO)N(Cc1ccccc1)Cc1cc(-c2ccccc2)on1 (configuration not stated) | 60 | 58
43 | Cc1ccc(-c2cc(CN(Cc3ccccc3)C(Cc3ccc(O)cc3)C(N)=O)no2)cc1 (configuration not stated) | 60 | 20
44 | N#Cc1ccc(CN(Cc2cc(-c3ccccc3Cl)on2)C(CCCNC(=N)N)C(N)=O)cc1 (configuration not stated) | 90 | 87.5
45 | CC(C)=CCC(C(N)=O)N(Cc1ccccc1)Cc1cc(-c2ccccc2)on1 (configuration not stated) | 30 | 
46 | Cc1ccc(-c2cc(CN(Cc3ccc(Br)cc3)C(CCCN=C(N)N)C(N)=O)no2)cc1 (configuration not stated) | 40 | 

— ChEMBL document CHEMBL1135176, “Combinatorial synthesis and biological evaluation of isoxazole-based libraries as antithrombotic agents” (2002)
